Data reported in US20180292376A1, “DIFFUSION CELL TESTING METHODS CONTAINING BIPHASIC RECEPTOR FLUIDS” (BUFFERAD Illinois Inc. d/b/a Zyleris PharmaTech, Inc., priority 2017, published 2018).
Where “and” joins values, the source holds several entries; their conditions need not be identical. Identical values can stand only once.

Test: In vitro release testing (IVRT), static vertical diffusion cell, synthetic membrane, UV-VIS analysis
Type: physicochemical
Conditions: for amount of xylene cyanol released into the water phase / release of Xylene Cyanol into the receptor fluid: ointment
Experimental: In Vitro Release Testing Method.
Release of pharmaceutically active compounds from semi-solid dosage forms was evaluated in an in vitro model of static vertical diffusion cell using a synthetic membrane model. […] The samples were analyzed using a UV-VIS spectrometer. […]
Test time points: 0, 2, 4, 6, 8, and 10 hours. Each test was conducted in four replicates (N=4). Square root of test time points: 0, 1.41, 2.00, 2.45, 2.83, and 3.16.
Membrane: Polypropylene (pore size: 0.45 micron).
Static vertical diffusion cell parameters: Area of the membrane diffusion area: 0.95 square centimeters.
Dosing level: infinite dose at about 3.0 milliliter of the semi-solid dosage form.
Static vertical diffusion cell consists of a donor and receptor compartment separated by a synthetic membrane. The dosing compartment was for the dosed semi-solid dosage form. […] Before dosing, the diffusion cell was pre-incubated at 32° C. for about 20 to 45 minutes. The t=0 samples were taken after the incubation period prior to dosing.
During the experiment, the receptor fluid was in intimate contact with the membrane through a mixing mechanism, such as, e.g., magnetic stirring bar, or orbit shaker, and maintained at 32° C. using a heating mechanism, such as, e.g., dry heat block, or circulating water bath. At each time point, entire content of the receptor fluid was collected and replaced with a fresh batch pre-incubated at 32° C.
An ointment dosage form was prepared as an example of the semi-solid dosage form. Petrolatum was heated to about 50 to 70° C. while mixing. Xylene Cyanol was added to the heated petrolatum while heating and mixing. The mixture was mixed until uniform. Then, the mixture was slowly cooled to room temperature while mixing to yield the ointment formulation.

## CCN=C1C=CC(=C(c2ccc(NCC)c(C)c2)c2ccc(S(=O)(=O)[O-])cc2S(=O)(=O)O)C=C1C.[Na+] [Xylene Cyanol]
0.5% Xylene Cyanol in Petrolatum, infinite dose, biphasic receptor fluid: 1-Octanol:H2O 1:1 v:v, square root of time (hr) 0.00 (0 h, prior to dosing)
  amount of xylene cyanol released: 0.0000 mcg/cm2
0.5% Xylene Cyanol in Petrolatum, infinite dose, biphasic receptor fluid: 1-Octanol:H2O 1:1 v:v, square root of time (hr) 2.00 (4 h)
  amount of xylene cyanol released: 1.2143 mcg/cm2 and 1.9575 mcg/cm2 and 1.4206 mcg/cm2 and 1.4438 mcg/cm2
0.5% Xylene Cyanol in Petrolatum, infinite dose, biphasic receptor fluid: 1-Octanol:H2O 1:1 v:v, square root of time (hr) 2.45 (6 h)
  amount of xylene cyanol released: 2.2025 mcg/cm2 and 3.0973 mcg/cm2 and 2.5204 mcg/cm2 and 2.5436 mcg/cm2
0.5% Xylene Cyanol in Petrolatum, infinite dose, biphasic receptor fluid: 1-Octanol:H2O 1:1 v:v, square root of time (hr) 2.83 (8 h)
  amount of xylene cyanol released: 3.1044 mcg/cm2 and 4.1192 mcg/cm2 and 3.3865 mcg/cm2 and 3.7213 mcg/cm2
0.5% Xylene Cyanol in Petrolatum, infinite dose, biphasic receptor fluid: 1-Octanol:H2O 1:1 v:v, square root of time (hr) 3.16 (10 h)
  amount of xylene cyanol released: 3.8674 mcg/cm2 and 4.8589 mcg/cm2 and 4.2884 mcg/cm2 and 4.5853 mcg/cm2
0.5% Xylene Cyanol in Petrolatum, infinite dose, biphasic receptor fluid: 1-Octanol:PBS Buffer pH 7.4 1:1 v:v, square root of time 0.00 (0 h, prior to dosing)
  amount of xylene cyanol released: 0.0000 mcg/cm2
0.5% Xylene Cyanol in Petrolatum, infinite dose, biphasic receptor fluid: 1-Octanol:PBS Buffer pH 7.4 1:1 v:v, square root of time 2.00 (4 h)
  amount of xylene cyanol released: 0.3389 mcg/cm2 and 0.4105 mcg/cm2 and 0.5179 mcg/cm2 and 0.4295 mcg/cm2
0.5% Xylene Cyanol in Petrolatum, infinite dose, biphasic receptor fluid: 1-Octanol:PBS Buffer pH 7.4 1:1 v:v, square root of time 2.45 (6 h)
  amount of xylene cyanol released: 1.2295 mcg/cm2 and 1.3179 mcg/cm2 and 0.8863 mcg/cm2 and 0.9032 mcg/cm2
0.5% Xylene Cyanol in Petrolatum, infinite dose, biphasic receptor fluid: 1-Octanol:PBS Buffer pH 7.4 1:1 v:v, square root of time 2.83 (8 h)
  amount of xylene cyanol released: 1.3579 mcg/cm2 and 1.8147 mcg/cm2 and 1.4400 mcg/cm2 and 1.5937 mcg/cm2
0.5% Xylene Cyanol in Petrolatum, infinite dose, biphasic receptor fluid: 1-Octanol:PBS Buffer pH 7.4 1:1 v:v, square root of time 3.16 (10 h)
  amount of xylene cyanol released: 1.8884 mcg/cm2 and 2.4316 mcg/cm2 and 1.7305 mcg/cm2 and 1.9768 mcg/cm2
0.5% Xylene Cyanol in Petrolatum, infinite dose, receptor fluid: 1-Octanol:H2O 1:1 v:v, N=4 runs
  Slope - Average: 2.2026 mcg/cm2/h^0.5
0.5% Xylene Cyanol in Petrolatum, infinite dose, receptor fluid: 1-Octanol:PBS Buffer pH 7.4 1:1 v:v
  Slope - Average: 1.0412 mcg/cm2/h^0.5
0.5% Xylene Cyanol in Petrolatum, infinite dose, receptor fluid: 1-Octanol, square root of time (hr) 0.00 (0 h, prior to dosing)
  amount of xylene cyanol released: BDL
0.5% Xylene Cyanol in Petrolatum, infinite dose, receptor fluid: 1-Octanol, square root of time (hr) 1.41 (2 h)
  amount of xylene cyanol released: BDL
0.5% Xylene Cyanol in Petrolatum, infinite dose, receptor fluid: 1-Octanol, square root of time (hr) 2.00 (4 h)
  amount of xylene cyanol released: BDL
0.5% Xylene Cyanol in Petrolatum, infinite dose, receptor fluid: 1-Octanol, square root of time (hr) 2.45 (6 h)
  amount of xylene cyanol released: BDL
0.5% Xylene Cyanol in Petrolatum, infinite dose, receptor fluid: 1-Octanol, square root of time (hr) 2.83 (8 h)
  amount of xylene cyanol released: BDL
0.5% Xylene Cyanol in Petrolatum, infinite dose, receptor fluid: 1-Octanol, square root of time (hr) 3.16 (10 h)
  amount of xylene cyanol released: BDL
0.5% Xylene Cyanol in Petrolatum, infinite dose, receptor fluid: 1-octanol:ethanol 50:50 v:v, square root of time (hr) 0.00 (0 h, prior to dosing)
  amount of xylene cyanol released: BDL
0.5% Xylene Cyanol in Petrolatum, infinite dose, receptor fluid: 1-octanol:ethanol 50:50 v:v, square root of time (hr) 1.41 (2 h)
  amount of xylene cyanol released: BDL
0.5% Xylene Cyanol in Petrolatum, infinite dose, receptor fluid: 1-octanol:ethanol 50:50 v:v, square root of time (hr) 2.00 (4 h)
  amount of xylene cyanol released: BDL
0.5% Xylene Cyanol in Petrolatum, infinite dose, receptor fluid: 1-octanol:ethanol 50:50 v:v, square root of time (hr) 2.45 (6 h)
  amount of xylene cyanol released: BDL
0.5% Xylene Cyanol in Petrolatum, infinite dose, receptor fluid: 1-octanol:ethanol 50:50 v:v, square root of time (hr) 2.83 (8 h)
  amount of xylene cyanol released: BDL
0.5% Xylene Cyanol in Petrolatum, infinite dose, receptor fluid: 1-octanol:ethanol 50:50 v:v, square root of time (hr) 3.16 (10 h)
  amount of xylene cyanol released: BDL
0.5% Xylene Cyanol in Petrolatum, infinite dose, receptor fluid: Isopropyl alcohol:water 50:50 v:v, square root of time (hr) 0.00 (0 h, prior to dosing)
  amount of xylene cyanol released: BDL
0.5% Xylene Cyanol in Petrolatum, infinite dose, receptor fluid: Isopropyl alcohol:water 50:50 v:v, square root of time (hr) 1.41 (2 h)
  amount of xylene cyanol released: BDL
0.5% Xylene Cyanol in Petrolatum, infinite dose, receptor fluid: Isopropyl alcohol:water 50:50 v:v, square root of time (hr) 2.00 (4 h)
  amount of xylene cyanol released: BDL
0.5% Xylene Cyanol in Petrolatum, infinite dose, receptor fluid: Isopropyl alcohol:water 50:50 v:v, square root of time (hr) 2.45 (6 h)
  amount of xylene cyanol released: BDL
0.5% Xylene Cyanol in Petrolatum, infinite dose, receptor fluid: Isopropyl alcohol:water 50:50 v:v, square root of time (hr) 2.83 (8 h)
  amount of xylene cyanol released: BDL
0.5% Xylene Cyanol in Petrolatum, infinite dose, receptor fluid: Isopropyl alcohol:water 50:50 v:v, square root of time (hr) 3.16 (10 h)
  amount of xylene cyanol released: BDL
0.5% Xylene Cyanol in Petrolatum, infinite dose, receptor fluid: dimethyl sulfoxide:ethanol 50:50 v:v, square root of time (hr) 0.00 (0 h, prior to dosing)
  amount of xylene cyanol released: BDL
0.5% Xylene Cyanol in Petrolatum, infinite dose, receptor fluid: dimethyl sulfoxide:ethanol 50:50 v:v, square root of time (hr) 1.41 (2 h)
  amount of xylene cyanol released: BDL
0.5% Xylene Cyanol in Petrolatum, infinite dose, receptor fluid: dimethyl sulfoxide:ethanol 50:50 v:v, square root of time (hr) 2.00 (4 h)
  amount of xylene cyanol released: BDL
0.5% Xylene Cyanol in Petrolatum, infinite dose, receptor fluid: dimethyl sulfoxide:ethanol 50:50 v:v, square root of time (hr) 2.45 (6 h)
  amount of xylene cyanol released: BDL
0.5% Xylene Cyanol in Petrolatum, infinite dose, receptor fluid: dimethyl sulfoxide:ethanol 50:50 v:v, square root of time (hr) 2.83 (8 h)
  amount of xylene cyanol released: BDL
0.5% Xylene Cyanol in Petrolatum, infinite dose, receptor fluid: dimethyl sulfoxide:ethanol 50:50 v:v, square root of time (hr) 3.16 (10 h)
  amount of xylene cyanol released: BDL
0.5% Xylene Cyanol in Petrolatum, infinite dose, receptor fluid: dimethyl sulfoxide:isopropyl alcohol:water 30:30:40 v:v:v, square root of time (hr) 0.00 (0 h, prior to dosing)
  amount of xylene cyanol released: BDL
0.5% Xylene Cyanol in Petrolatum, infinite dose, receptor fluid: dimethyl sulfoxide:isopropyl alcohol:water 30:30:40 v:v:v, square root of time (hr) 1.41 (2 h)
  amount of xylene cyanol released: BDL
0.5% Xylene Cyanol in Petrolatum, infinite dose, receptor fluid: dimethyl sulfoxide:isopropyl alcohol:water 30:30:40 v:v:v, square root of time (hr) 2.00 (4 h)
  amount of xylene cyanol released: BDL
0.5% Xylene Cyanol in Petrolatum, infinite dose, receptor fluid: dimethyl sulfoxide:isopropyl alcohol:water 30:30:40 v:v:v, square root of time (hr) 2.45 (6 h)
  amount of xylene cyanol released: BDL
0.5% Xylene Cyanol in Petrolatum, infinite dose, receptor fluid: dimethyl sulfoxide:isopropyl alcohol:water 30:30:40 v:v:v, square root of time (hr) 2.83 (8 h)
  amount of xylene cyanol released: BDL
0.5% Xylene Cyanol in Petrolatum, infinite dose, receptor fluid: dimethyl sulfoxide:isopropyl alcohol:water 30:30:40 v:v:v, square root of time (hr) 3.16 (10 h)
  amount of xylene cyanol released: BDL
0.5% Xylene Cyanol in Petrolatum, infinite dose, receptor fluid: isopropyl alcohol, square root of time (hr) 0.00 (0 h, prior to dosing)
  amount of xylene cyanol released: BDL
0.5% Xylene Cyanol in Petrolatum, infinite dose, receptor fluid: isopropyl alcohol, square root of time (hr) 1.41 (2 h)
  amount of xylene cyanol released: BDL
0.5% Xylene Cyanol in Petrolatum, infinite dose, receptor fluid: isopropyl alcohol, square root of time (hr) 2.00 (4 h)
  amount of xylene cyanol released: BDL
0.5% Xylene Cyanol in Petrolatum, infinite dose, receptor fluid: isopropyl alcohol, square root of time (hr) 2.45 (6 h)
  amount of xylene cyanol released: BDL
0.5% Xylene Cyanol in Petrolatum, infinite dose, receptor fluid: isopropyl alcohol, square root of time (hr) 2.83 (8 h)
  amount of xylene cyanol released: BDL
0.5% Xylene Cyanol in Petrolatum, infinite dose, receptor fluid: isopropyl alcohol, square root of time (hr) 3.16 (10 h)
  amount of xylene cyanol released: BDL
0.5% Xylene Cyanol in Petrolatum, infinite dose, receptor fluid: water, amount released vs square root of time
  Slope (release rate): BDL
0.5% Xylene Cyanol in Petrolatum, infinite dose, receptor fluid: water, square root of time (hr) 0.00 (0 h, prior to dosing)
  amount of xylene cyanol released: BDL
0.5% Xylene Cyanol in Petrolatum, infinite dose, receptor fluid: water, square root of time (hr) 1.41 (2 h)
  amount of xylene cyanol released: BDL
0.5% Xylene Cyanol in Petrolatum, infinite dose, receptor fluid: water, square root of time (hr) 2.00 (4 h)
  amount of xylene cyanol released: BDL
0.5% Xylene Cyanol in Petrolatum, infinite dose, receptor fluid: water, square root of time (hr) 2.45 (6 h)
  amount of xylene cyanol released: BDL
0.5% Xylene Cyanol in Petrolatum, infinite dose, receptor fluid: water, square root of time (hr) 2.83 (8 h)
  amount of xylene cyanol released: BDL
0.5% Xylene Cyanol in Petrolatum, infinite dose, receptor fluid: water, square root of time (hr) 3.16 (10 h)
  amount of xylene cyanol released: BDL
Biphasic receptor fluid 1-butanol:1-octanol:water 20:30:50 v:v:v
  amount of xylene cyanol released into the water phase: high amount
Biphasic receptor fluid 1-hexanol:1-octanol:water 25:25:50 v:v:v
  amount of xylene cyanol released into the water phase: high amount
Biphasic receptor fluid 1-hexanol:water 50:50 v:v
  amount of xylene cyanol released into the water phase: high amount
Biphasic receptor fluid 1-octanol:PEG 400:water 40:20:40 v:v:v
  amount of xylene cyanol released into the water phase: higher amount
Biphasic receptor fluid 1-octanol:ethanol:water 40:20:40 v:v:v
  amount of xylene cyanol released into the water phase: higher amount
Biphasic receptor fluid 1-octanol:glycerin:water 40:20:40 v:v:v
  amount of xylene cyanol released into the water phase: higher amount
Biphasic receptor fluid 1-octanol:isopropanol:water 40:20:40 v:v:v
  amount of xylene cyanol released into the water phase: higher amount
Biphasic receptor fluid 1-octanol:propylene glycol:water 40:20:40 v:v:v
  amount of xylene cyanol released into the water phase: higher amount
one-phase receptor fluid: 1-octanol
  release of Xylene Cyanol into the receptor fluid: no release
one-phase receptor fluid: 1-octanol:ethanol 50:50 v:v
  release of Xylene Cyanol into the receptor fluid: no release
one-phase receptor fluid: dimethyl sulfoxide:ethanol 50:50 v:v
  release of Xylene Cyanol into the receptor fluid: no release
one-phase receptor fluid: dimethyl sulfoxide:isopropyl alcohol:water 30:30:40 v:v:v
  release of Xylene Cyanol into the receptor fluid: no release
one-phase receptor fluid: isopropyl alcohol
  release of Xylene Cyanol into the receptor fluid: no release
one-phase receptor fluid: isopropyl alcohol:water 50 to 50 in volume
  release of Xylene Cyanol into the receptor fluid: no release
one-phase receptor fluid: water
  release of Xylene Cyanol into the receptor fluid: no release
